Reference: patent US5068465A, “Pharmaceutically active 3-aryl-2-fluoro-1-olefins” (Merrell Dow Pharmaceuticals Inc., priority 1990, dated 1991)

Experiments:
[1] = system: dopamine beta-hydroxylase (DBH); test: time-dependent DBH inhibitory activity (tyramine conversion followed by oxygen uptake, polarographic electrode); assay type: biochemical; details: Concentration 12.9 mM; pH about 5; about 37° C.; ascorbate; tyramine substrate; 0.989 correlation
Description: The compounds of this invention are useful as dopamine beta-hydroxylase inhibitors for the treatment of, for instance, hypertension. The dopamine beta-hydroxylase (DBH) inhibitory properties of the compounds of this invention can readily be determined by standard and well known procedures. […] The test compound is added at the desired concentration, and the system is incubated. At different time intervals, tyramine, a substrate of DBH, is introduced to aliquots of the incubated enzyme solution and DBH activity is measured by the method of S. May, et al, J. Biol. Chem. 256, 2258 (1981), where the enzyme-activated conversion of tyramine is followed by monitoring oxygen uptake by means of a polarographic electrode and an oxygen monitor, to determine the level of DBH activity.

DBH = details: J. Biol. Chem., 259, No. 11, 6925 (1984); cited from earlier work
monoamine oxidase = details: J. Med. Chem., 27, 9 (1984); cited from earlier work

Compound | mechanism-based inhibitors of DBH (DBH) | also measured
C=C(F)Cc1ccc(O)cc1 [3-(4-Hydroxyphenyl)-2-Fluoro-1-Propene] |  | t 1/2: time required to reach 50% log activity [1]: 5 min.
C=C(Br)Cc1ccc(O)cc1 [2-bromo-3-(4-hydroxyphenyl)-1-propene] | mechanism-based inhibitors of DBH | 
C=C(Cl)Cc1ccc(O)cc1 [2-chloro-3-(4-hydroxyphenyl)-1-propene] | mechanism-based inhibitors of DBH | 
COc1ccc(C(=CF)CN)cc1OC [2-(3,4-dimethoxyphenyl)-3-fluoroallylamine] |  | active as a monoamine oxidase inhibitor (monoamine oxidase): active as a monoamine oxidase inhibitor
